How the values were obtained:
[1] = tested on: rat with cerebral ischemia and Re-Infusion; assay: Protecting effect in rat with cerebral ischemia and re-infusion (four arteries ligation model); assay type: in vivo, Wistar rat
Description: The following experimental example is used to illustrate the effect of resisting cardiac and cerebral ischemia as well as oxygen-deficiency, and the low toxicity of the compound of the present invention (the compound of formula (I)). • I. The protecting effect of N-acetyl-D-glucosamine in rat with cerebral ischemia and Re-Infusion • 1. Animal: Wistar rat provided by the 3rd Military Medical University P.R. China. Half of them are male, the other are female. • 2. Method for making model: the model is made by four arteries ligation method to cause the rat to be cerebral ischemia, in which for each rat, the vertebra artery in the vertebra foramen of the second cervical vertebra is blocked by hot coagulation with electric coagulator, then separate the two common carotid artery in the front of it, after that, remain the surgical thread jacket, sewing up. Next day, after the animal is recovered from anesthesia, open the sewing thread in the front of the animal, clamp the two common carotid artery with artery clip, it needs 20 min. in total. […] Grouping: the animals are divided into four groups (eight animals in each group) […]
Astragalus Group: that is, before the animal is treated, administrating Astragalus injection solution by abdominal injection.
Astragalus+N-acetyl-D-glucosanime Group: that is, 30 min before clamping, administrating a mixture injection solution of 0.25 g/kg of N-acetyl-D-glucosanime and 2 g/kg of Astragalus by abdominal injection.
The control Group: not administrating any medicament, but injecting physiological salt solution with the same volume.
The animals in each group are all fed in standard. In the process of operation, please pay attention to asepsis.
Abnormal ratio of the water content in the brain (by dry-wet weight method):
Scoring the symptoms of nerve behavior • 0 score: no symptom of nerve defect, moving normally • 1 score: cannot extend the front claw at the opposite side • 2 score: when walking, the body rotates toward the hemiplegia side • 3 score: the body collapse down toward the hemiplegia side • 4 score: not capable of walking spontaneously, losing consciousness 5.

[2] = tested on: mice in oxygen deficiency at normal pressure; assay: Resistance to oxygen-deficiency: model of oxygen deficiency at normal pressure; assay type: in vivo, mice of Kunming species
Experimental: Experimental research of the resistance to oxygen-deficiency of N-acetyl-Dglucosanime 1. Model of Oxygen Deficiency at Normal Pressure:
The mice were put into a sealed glass desiccator with a volumn of 200 ml and charged with 20 g of sodium lime to observe the survival time.
The mice of Kunming species, provided by the 3rd Military Medical University of P. R. China
Two groups had 24 mice in total, in the experimental group, two weeks before experiment, administrating N-acetyl-D-glucosanime by stomach infusion with a dosage of 0.05 g/kg, in the control group, they were normally fed.

[3] = in vivo
Description: N-acetyl-D-glucosanime can raise the resistance to oxygen deficiency of the small mice. • III. Toxicological test of the compound of formula (I), including: • 1. acute toxicity test: including tests of administrating medicine by oral, intravenous injection and maximum limit amount for administration; • 2. Ames test; • 3. micronucleus test of bone marrow cell of mouse; • 4. abnormal sexual test for the sperm of mouse; • 5. abnormal aberrance test for the chromosin of mouse's testis; • 6. chronic lethal test; • 7. subchronic toxicity (feed for 90 days) test; • 8. traditional aberrance-inducing test;

CC(=O)N[C@H]1C(O)O[C@H](CO)[C@@H](O)[C@@H]1O (stereo partly drawn) [N-acetyl-D-glucosanime, N-acetyl-D-glucosamine]
cerebral edema degree caused by cerebral ischemia and re-infusion ([1]; conclusion, dosage 0.025 g/kg): decreased obviously | corresponding nerve symptoms ([1]; conclusion, dosage 0.025 g/kg): released | survival rate ([1]; conclusion, dosage 0.025 g/kg): raised obviously | Water content of brain ([1]; dry-wet weight method, medicament before clamping (N-acetyl-D-glucosanime 0.25 g/kg, Astragalus 2 g/kg in mixture), control 70.84%): 66.2% | Survival ([1]; four arteries ligation, 20 min clamping, medicament before clamping (N-acetyl-D-glucosanime 0.25 g/kg, Astragalus 2 g/kg in mixture), control 62.5%): 87.5% | Abnormal ratio (symptoms of nerve behavior) ([1]; medicament before clamping (N-acetyl-D-glucosanime 0.25 g/kg, Astragalus 2 g/kg in mixture), control 75%): 50% | Average survival period ([2]; 0.05 g/kg by stomach infusion, two weeks before experiment, sealed 200 ml desiccator with 20 g sodium lime, versus control group): much longer than that of the control group | resistance to oxygen deficiency of the small mice ([2]; conclusion): can raise | acute test dosage relative to the injection dosage for human being [3]: 300 times | dosage taken at which acute toxicosis reaction had not appeared [3]: more than 2 g/kg | maximum dosage with no toxicosis reaction ([3]; 4 weeks): 1 g/kg

From US7074774B2, “Use of N-acetyl-D-glucosamine in the manufacture of pharmaceutical useful for treating cardio-cerebrovascular anoxemia” (Third Military Medical University Chinese People's …, priority 2001, dated 2006)
